Test results taken from US20060210478A1, “Steady state perfusion methods” (priority 2005, published 2006).

Columns and labels:
domestic pig [1] = details: pig with 80-90% LCX stenosis; 0.05 mmol/kg i.v.; 0.25 mg/kg/min adenosine; confirmed by fluorescent microspheres post-mortem
Excerpt: (§1) A domestic pig (approx 60 kg B.W.) is anesthetized and intubated. The animal undergoes surgical intervention to partially occlude the distal portion of the left circumflex coronary artery (LCX). A calibrated angioplasty balloon is delivered by catheter, guided by X-ray fluoroscopy, from the femoral artery to the heart. It is advanced into the Left Circumflex coronary artery and inflated to create the equivalent of an 80-90% stenosis. The balloon catheter will remain inflated and at a constant inflation pressure for the duration of the imaging procedure, to simulate a static lesion and stenosis in the coronary artery.
The pig is then transported to the MRI suite and remains under general anesthesia and intubated for the duration of the imaging examination. Sufficient MRI scout scans to plan the myocardial imaging are aquired. 0.05 mmol/kg of MS-325 is administered as a single intraveneous injection. Enough time (ca. 10 minutes) for the agent to achieve equilibrium in the blood elapses before perfusion imaging.
Perfusion imaging is performed using a gradient echo method in order to sensitize the MRI to the lowered T1 of the imaging agent (TR=5.0 ms, FA=12°). Three 10 mm short-axis slices are acquired, so that 16 of the 17 AHA/ACC myocardial segments can be visualized. […]

domestic pig [2] = details: pig with 80-90% LCX stenosis; 0.05 mmol/kg i.v.; 0.25 mg/kg/min adenosine; confirmed by fluorescent microspheres post-mortem; remark: listed apart in the source
Excerpt: as §1
The pig is then transported to the MRI suite and remains under general anesthesia and intubated for the duration of the imaging examination. Sufficient MRI scout scans to plan the myocardial imaging are aquired. […] Enough time (ca. 10 minutes) for the agent to achieve equilibrium in the blood elapses before perfusion imaging commences.
Perfusion imaging is performed using a gradient echo method in order to sensitize the MRI to the lowered T1 of the imaging agent (TR=3.2 ms, FA=12°). Three short-axis 10 mm slices are acquired, so that 16 of the 17 AHA/ACC myocardial segments can be visualized. In this implementation, cardiac-triggering is employed to control heart motion and breathing is suspended to eliminate diaphragmatic motion. […]

domestic pig [3] = details: pig with 80-90% LCX stenosis, 0.05 mmol/kg i.v.
Excerpt: A domestic pig (approx 50 kg B.W.) is anesthetized and intubated. The animal undergoes surgical intervention to partially occlude the distal portion of the left circumflex coronary artery (LCX). A calibrated angioplasty balloon is delivered by catheter, guided by X-ray fluoroscopy, from the femoral artery to the heart. It is advanced into the left circumflex coronary artery and inflated to create the equivalent of an 80-90% stenosis. The balloon catheter will remain inflated and at a constant inflation pressure for the duration of the imaging procedure, to simulate a static lesion and stenosis in the coronary artery.
The pig is then transported to the MRI suite and remains under general anesthesia and intubated for the duration of the imaging examination. Sufficient MRI scout scans to plan the myocardial imaging are acquired. Then 0.05 mmol/kg of MS-325 is administered as a single intraveneous injection. Enough time (ca. 10 minutes) for the agent to achieve equilibrium in the blood elapses before imaging commences.
Perfusion imaging is performed using a saturation-recovery gradient echo methods in order to sensitize the MRI to the lowered T1 of the imaging agent. Three short-axis slices (7.5 mm, with 7.5 mm slice separations) are acquired, so that 16 of the 17 AHA/ACC myocardial segments can be visualized. […]

O=C([O-])CN(CCN(CC(=O)[O-])C[C@H](COP(=O)([O-])OC1CCC(c2ccccc2)(c2ccccc2)CC1)N(CC(=O)[O-])CC(=O)[O-])CC(=O)[O-].[Gd+3].[H+].[H+].[H+] [MS-325]
Analysis of MR images during adenosine stress (domestic pig [1]): a hypo-intense region in the myocardial wall | Analysis of MR images during vasodilatory stress (domestic pig [2]): a hypo-intense region in the wall of the left ventricle | Corresponding image during stress (domestic pig [3]; after 5 minutes of 0.25 mg/kg/min adenosine infusion): a greater degree of negative contrast with the remaining myocardial wall | Analysis of MR images (perfusion imaging at rest) (domestic pig [3]; imaging ca. 10 minutes after injection, before adenosine): a suspicious hypo-intense region in the anterior wall of the left ventrical
